Results on one compound are retold here after publication PMC9822434, “Estradiol-Based Salicylaldehyde (Thio)Semicarbazones and Their Copper Complexes with Anticancer, Antibacterial and Antioxidant Activities” (Molecules, 2022).

One series is described as follows: physchem. The series is classed as physicochemical. As to the method: An Orion 710A pH-meter equipped with a Metrohm combined electrode (type 6.0234.100) and a Metrohm 665 Dosimat burette were used for the UV–vis titrations at 25.0 ± 0.1 °C. Ionic strength of 0.10 M (KCl) was used to keep the activity coefficients constant. The titrations were performed with carbonate-free KOH solution of known concentration (0.10 M) with 30% (v/v) DMSO content. […] The average water ionization constant (pKw) is 14.54 ± 0.05 in the 30% (v/v) DMSO/H2O mixture. Argon was always passed over the solutions during the titrations. An Agilent Cary 8454 diode array spectrophotometer was used to record the UV–vis spectra at an interval of 200–800 nm. The path length was 2 cm. Spectrophotometric titrations were performed using a 0.1 M KOH titrant solution with 30% (v/v) DMSO on samples with 30% (v/v) DMSO containing HCl, KCl and the ligand at 20 μM concentration in the pH range 2.0–12.5 in the absence or in the presence of 1 or 0.5 equiv. Cu(II) ions. Proton dissociation constants (Ka) of the TSC ligands, the overall stability constants (β) of the Cu(II) complexes and the UV–vis spectra of the individual species were calculated by the computer program PSEQUAD [41] as was done in our previous works.

The nature of series [1]: direct redox reaction of the Cu(II) complexes with GSH (UV–vis, anaerobic). The series is classed as physicochemical. Particulars: Cu(II) complex (25 µM) of the named ligand with GSH (1.25 mM), pH 7.4, anaerobic, 30% (v/v) DMSO/H2O, 25.0 °C. The method in brief:
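Complexes mixed with GSH or ascorbic acid at 25.0 ± 0.1 °C, pH 7.40 (10 mM HEPES, 0.1 M KCl) in a sealed tandem cuvette, both compartments argon-deoxygenated 10 min before mixing. UV–vis absorbance followed at complex λmax until stable; single-exponential fit, kobs taken as slope of ln(A/A0) versus t.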

What is called pKa is the pH at which an ionisable group is half protonated. A higher pKa goes with a group that holds its proton tightly. By melting point is commonly meant the temperature, or range, at which the solid turns liquid. Regarding `C[C@]12CC[C@@H]3c4cc(C=NNC(N)=S)c(O)cc4CC[C@H]3[C@@H]1CCC2O` (stereo partly drawn) [estradiol-TSC, 2-((3,17 Dihydroxy-estra-1,3,5(10)-triene-2-yl)methylene)Hydrazine-1-carbothioamide], the melting point was in the range of 229 to 231 °C. Also, in “physchem”, the pKa amounted to 9.23 ± 0.03. In addition, in series [1], the kobs was determined as 0.07 ± 0.03 min⁻¹.
